Here are results for 15 compounds from US6828315B1, “1-Amino triazoloc4,3-a! quinazoline-5-ones and/or -5-thiones inhibiting phosphodiesterase IV” (Warner-Lambert LLC, priority 1999, dated 2004).

In turn, `O=c1c2cc(Cl)ccc2n2c(N3CCCC3)nnc2n1Cc1ccccc1` [Compound 173, 4-benzyl-7chloro-1-(pyrrolidin-1-yl)-4H-[1,2,4]triazolo[4,3-a]-quinazolin-5-one] returned a melting point of 163 °C.

For the compound `O=C(O)Cc1ccc(Cn2nc(N3CCCCCC3)n3c4ccc(Br)cc4c(=O)nc23)cc1` [Compound 138, [4-(7-Bromo-5-oxo-1-perhydro-azepin-1-yl-5H-[1,2,4]triazolo[4,3-a]quinazolin-3-ylmethyl)-phenyl]-acetic acid], the melting point is 269 °C.

`CN(C)c1nnc2n(Cc3ccccc3)c(=O)c3cc(Br)ccc3n12` [Compound 179, 4-Benzyl-7-bromo-1-dimethylamino-4H-[1,2,4]triazolo[4,3-a]quinazolin-5-one] returned a melting point of 171 °C.

`Cc1ccc2c(c1)c(=O)n(CC=Cc1ccncc1)c1nnc(N(C)C)n21` [Compound 105, 1-Dimethylamino-7-methyl-4-(3-pyridin-4yl-allyl)-4H-[1,2,4]triazolo[4,3-a]quinazolin-5-one] showed a melting point of 119 °C.

`O=c1c2cc(Br)ccc2n2c(N3CCCC3)nnc2n1CC(F)(F)F` [Compound 67, 7-Bromo-1-pyrrolidin-1-yl-4-(2,2,2-trifluoro-ethyl)-4H-[1,2,4]triazolo[4,3-a]quinazolin-5-one] had a melting point of 202 °C.

`N#Cc1ccc(Cn2nc(N3CCCC3)n3c4ccc(Br)cc4c(=O)nc23)cc1` [Compound 144, 4-(7-bromo-5-oxo-1-(pyrrolidin-1-yl)-5H-[1,2,4]triazolo[4,3-a]-quinazolin-3-ylmethyl)-benzonitrile] had a melting point of 222 °C.

The compound `Cn1c(=O)c2ccccc2n2c(N3CCCCCC3)nnc12` [Compound 200, 1-(azepan-1-yl)-4-methyl-4H-[1,2,4]triazolo[4,3-a]quinazolin-5-one] yielded a melting point of 199 to 203 °C.

Turning to `Cc1ccc2c(c1)c(=O)nc1n(CC=Cc3ccccc3)nc(N3CCCC3)n21` [Compound 158, 7-methyl-3-(3-phenylallyl)-1-(pyrrolidin-1-yl)-3H-[1,2,4]triazolo[4,3-a]quinazolin-5-one], the melting point was 225 °C.

The compound `Cc1ccc2c(c1)c(=O)n(Cc1ccccc1)c1nnc(N3CCCC3)n21` [Compound 191, 4-Benzyl-7-methyl-1-pyrrolidin-1-yl-4H-[1,2,4]triazolo[4,3-a]quinazolin-5-one] registered a melting point of 189 °C.

The compound `O=c1c2cc(Br)ccc2n2c(N3CCCCCC3)nnc2n1Cc1ccc(F)cc1` [Compound 33, 1-Azepan-1-yl-7-bromo-4-(4-fluoro-benzyl)-4H-[1,2,4]triazolo[4,3-a]quinazolin-5-one] came in with a melting point of 158 °C.

On to `COc1cccc(Cn2nc(N3CCCCCC3)n3c4ccc(Cl)cc4c(=O)nc23)c1` [Compound 121, 1-(azepan-1-yl)-7-chloro-3-(3-methoxybenzyl)-3H-[1,2,4]triazolo[4,3-a]quinazolin-5-one], for which the melting point was found to be 163 °C.

Compound `CN1CCN(c2nnc3n(C)c(=O)c4cc(Cl)ccc4n23)CC1` [Compound 169, 7-Chloro-4-methyl-1-(4-methyl-piperazin-1-yl)-4H-[1,2,4]triazolo[4,3-a]quinazolin-5-one] came in with a melting point of 180 to 182 °C.

With `CCCCn1nc(N2CCCC2)n2c3ccc(Br)cc3c(=O)nc12` [Compound 153, 7-bromo-3-(n-butyl)-1-(pyrrolidin-1-yl)-3H-[1,2,4]triazolo[4,3-a]-quinazolin-5-one], the melting point came to 130 °C.

`CC(=O)Oc1ccc(Cn2nc(N3CCCC3)n3c4ccc(Br)cc4c(=O)nc23)cc1` [Compound 147, Acetic acid 4-(7-bromo-5-oxo-1-pyrrolidin-1-yl-5H-[1,2,4]triazolo[4,3-a]quinazolin-3-ylmethyl)phenyl ester] had a melting point of 199 °C.

`CN(C)c1nnc2n(Cc3ccc(CC(=O)O)cc3)c(=O)c3cc(Br)ccc3n12` [Compound 82, [4-(7-Bromo-1-dimethylamino-5-oxo-5H-[1,2,4]triazolo[4,3-a]quinazolin-4-ylmethyl)-phenyl]-acetic acid] yielded a melting point of 246 °C.
